Source: patent US9988400B2 (Genentech, Inc., priority 2013, dated 2018)

Target: T1, HEK cells stably transfected with tetracycline inducible hNR1 and hNR2A (Homo sapiens, UniProt Q05586+Q12879)
T1 construct: expressed in transfected cells; host or cells: HEK cells, stably transfected, tetracycline/doxycycline inducible
Assay: Assay 1: Cell-Based Assay, cytosolic calcium response to positive allosteric modulators (with 30 μM glycine and 300 nM L-glutamate, EC30)
Settings: Table 3; cytosolic calcium response, with 30 μM glycine and 300 nM L-glutamate (EC30); — = no plateau was reached
Outline: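 Cells induced 24 h with 7.5 μg mL^−1 doxycycline plus 500 μM (+)-ketamine, loaded 60 min at 37 °C with calcium dye in Mg-free HBSS (1.8 mM Ca, probenecid, 10 μM (+)-ketamine, pH 7.15). Peak RFU over 5 min after compound addition, scaled to 100 μM L-glutamate (100%) and 0 μM (0%); four-parameter Hill fit for EC50, max % if no plateau.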

T1 sequence (Q12879 23-1464, other chains not shown): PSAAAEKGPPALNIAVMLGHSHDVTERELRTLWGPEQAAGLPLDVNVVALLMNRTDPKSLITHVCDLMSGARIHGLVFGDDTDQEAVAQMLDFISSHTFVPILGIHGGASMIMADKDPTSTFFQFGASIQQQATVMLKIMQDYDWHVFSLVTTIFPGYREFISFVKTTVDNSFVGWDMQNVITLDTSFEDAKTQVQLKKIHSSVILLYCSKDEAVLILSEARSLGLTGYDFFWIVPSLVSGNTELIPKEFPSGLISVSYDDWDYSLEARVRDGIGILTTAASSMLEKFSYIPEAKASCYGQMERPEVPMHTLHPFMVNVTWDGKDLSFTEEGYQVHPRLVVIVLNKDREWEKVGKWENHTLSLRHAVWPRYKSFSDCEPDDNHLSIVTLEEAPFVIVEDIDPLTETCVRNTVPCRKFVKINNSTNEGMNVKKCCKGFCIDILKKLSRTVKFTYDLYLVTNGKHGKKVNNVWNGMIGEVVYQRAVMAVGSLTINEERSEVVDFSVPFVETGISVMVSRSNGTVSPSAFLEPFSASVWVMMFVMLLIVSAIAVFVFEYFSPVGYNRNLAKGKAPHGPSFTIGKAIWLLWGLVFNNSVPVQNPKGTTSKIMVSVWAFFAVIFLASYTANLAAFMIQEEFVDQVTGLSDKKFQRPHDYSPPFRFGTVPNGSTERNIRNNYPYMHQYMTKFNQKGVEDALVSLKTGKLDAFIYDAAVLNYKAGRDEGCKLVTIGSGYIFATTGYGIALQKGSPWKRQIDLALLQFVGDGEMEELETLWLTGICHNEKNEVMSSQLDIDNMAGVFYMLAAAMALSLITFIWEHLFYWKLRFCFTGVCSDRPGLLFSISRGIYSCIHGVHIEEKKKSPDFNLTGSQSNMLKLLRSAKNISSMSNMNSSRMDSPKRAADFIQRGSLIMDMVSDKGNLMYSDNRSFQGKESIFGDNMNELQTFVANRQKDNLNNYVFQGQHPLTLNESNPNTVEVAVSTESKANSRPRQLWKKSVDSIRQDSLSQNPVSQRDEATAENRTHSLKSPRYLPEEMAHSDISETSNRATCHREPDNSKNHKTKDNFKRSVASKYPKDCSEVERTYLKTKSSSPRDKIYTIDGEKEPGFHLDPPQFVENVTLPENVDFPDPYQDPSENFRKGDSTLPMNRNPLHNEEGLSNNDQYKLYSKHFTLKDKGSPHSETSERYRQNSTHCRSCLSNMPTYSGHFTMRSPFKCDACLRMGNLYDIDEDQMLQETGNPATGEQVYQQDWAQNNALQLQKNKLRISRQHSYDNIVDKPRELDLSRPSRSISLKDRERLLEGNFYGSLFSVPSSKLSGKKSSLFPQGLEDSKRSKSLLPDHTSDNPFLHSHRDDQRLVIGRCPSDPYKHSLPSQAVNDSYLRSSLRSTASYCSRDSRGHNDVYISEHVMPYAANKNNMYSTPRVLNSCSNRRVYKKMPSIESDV

| Structure (SMILES) | EC50 [µM] |
| --- | --- |
| Cc1sc2nc(Cc3cccc(C(F)(F)F)c3F)cc(=O)n2c1-c1ncc[nH]1 [compound 47, 7-[[2-fluoro-3-(trifluoromethyl)phenyl]methyl]-3-(1H-imidazol-2-yl)-2-methyl-thiazolo[3,2-a]pyrimidin-5-one] | 5.14 |
| CCNC(=O)c1c(C)sc2nc(Cc3cc(C)cc(C#N)c3F)cc(=O)n12 [compound 49, 7-[(3-cyano-2-fluoro-5-methyl-phenyl)methyl]-N-ethyl-2-methyl-5-oxo-thiazolo[3,2-a]pyrimidine-3-carboxamide] | 17.5 |
| CCNC(=O)c1c(C(F)(F)F)sc2nc(Cc3cccc(Cl)c3F)cc(=O)n12 [compound 50, 7-[(3-chloro-2-fluoro-phenyl)methyl]-N-ethyl-5-oxo-2-(trifluoromethyl)thiazolo[3,2-a]pyrimidine-3-carboxamide] | 6.4 |
| Cc1sc2nc(Cc3cccc(C(F)(F)F)c3F)cc(=O)n2c1C(=O)NCC(F)(F)F [compound 51, 7-[[2-fluoro-3-(trifluoromethyl)phenyl]methyl]-2-methyl-5-oxo-N-(2,2,2-trifluoroethyl)thiazolo[3,2-a]pyrimidine-3-carboxamide] | 3.16 |
| CNC(=O)c1c(C)sc2nc(Oc3cccc(C(F)(F)F)c3F)cc(=O)n12 [compound 59, 7-[2-fluoro-3-(trifluoromethyl)phenoxy]-N,2-dimethyl-5-oxo-thiazolo[3,2-a]pyrimidine-3-carboxamide] | 8.22 |
| CNC(=O)c1c(C(F)(F)F)sc2nc(Cc3cccc(C(F)(F)F)c3F)cc(=O)n12 [compound 63, 7-[[2-fluoro-3-(trifluoromethyl)phenyl]methyl]-N-methyl-5-oxo-2-(trifluoromethyl)thiazolo[3,2-a]pyrimidine-3-carboxamide] | 3.71 |
| CNC(=O)c1c(C(F)(F)F)sc2nc(Cc3cccc(Cl)c3F)cc(=O)n12 [compound 64, 7-[(3-chloro-2-fluoro-phenyl)methyl]-N-methyl-5-oxo-2-(trifluoromethyl)thiazolo[3,2-a]pyrimidine-3-carboxamide] | 12.1 |
| CCNC(=O)c1c(C)sc2nc(Oc3cccc(C#N)c3F)cc(=O)n12 [compound 68, 7-(3-cyano-2-fluoro-phenoxy)-N-ethyl-2-methyl-5-oxo-thiazolo[3,2-a]pyrimidine-3-carboxamide] | 30.4 |
| CCNC(=O)c1c(Cl)sc2nc(Cc3cccc(C#N)c3F)cc(=O)n12 [compound 69, 2-chloro-7-[(3-cyano-2-fluoro-phenyl)methyl]-N-ethyl-5-oxo-thiazolo[3,2-a]pyrimidine-3-carboxamide] | 11.2 |
| CNC(=O)c1c(C(F)(F)F)sc2nc(Cc3cccc(C#N)c3F)cc(=O)n12 [compound 70, 7-[(3-cyano-2-fluoro-phenyl)methyl]-N-methyl-5-oxo-2-(trifluoromethyl)thiazolo[3,2-a]pyrimidine-3-carboxamide] | 2.92 |
| CCNC(=O)Cc1c(C)sc2nc(Cc3cccc(C(F)(F)F)c3F)cc(=O)n12 [compound 71, N-ethyl-2-[7-[[2-fluoro-3-(trifluoromethyl)phenyl]methyl]-2-methyl-5-oxo-thiazolo[3,2-a]pyrimidin-3-yl]acetamide] | 1.37 |
| Cc1sc2nc(Oc3cccc(C(F)(F)F)c3F)cc(=O)n2c1C1CC1 [compound 73, 3-cyclopropyl-7-[2-fluoro-3-(trifluoromethyl)phenoxy]-2-methyl-thiazolo[3,2-a]pyrimidin-5-one] | 40.1 |
| N#Cc1cccc(Cc2cc(=O)n3c(C4CC4C(F)(F)F)c(Cl)sc3n2)c1F (centres unmarked) [compound 74, 3-[[2-chloro-5-oxo-3-[2-(trifluoromethyl)cyclopropyl]thiazolo[3,2-a]pyrimidin-7-yl]methyl]-2-fluoro-benzonitrile] | 0.507 |
| CNC(=O)Cc1c(C(F)(F)F)sc2nc(Cc3cccc(C(F)(F)F)c3F)cc(=O)n12 [compound 75, 2-[7-[[2-fluoro-3-(trifluoromethyl)phenyl]methyl]-5-oxo-2-(trifluoromethyl)thiazolo[3,2-a]pyrimidin-3-yl]-N-methyl-acetamide] | 28.9 |

Next, values leading:

| EC50 [µM] | Structure (SMILES) |
| --- | --- |
| 1.25 | CCNC(=O)c1c(C(F)(F)F)sc2nc(Cn3nc(C(F)(F)F)cc3C)cc(=O)n12 [compound 45, N-ethyl-7-[[5-methyl-3-(trifluoromethyl)pyrazol-1-yl]methyl]-5-oxo-2-(trifluoromethyl)thiazolo[3,2-a]pyrimidine-3-carboxamide] |
| 7.04 | CCNC(=O)c1c(C(F)(F)F)sc2nc(Cn3nc(C)cc3C(F)(F)F)cc(=O)n12 [compound 46, N-ethyl-7-[[3-methyl-5-(trifluoromethyl)pyrazol-1-yl]methyl]-5-oxo-2-(trifluoromethyl)thiazolo[3,2-a]pyrimidine-3-carboxamide] |
| 7.66 | CCNC(=O)c1c(C)sc2nc(Oc3cccc(C(F)(F)F)c3F)cc(=O)n12 [compound 48, N-ethyl-7-[2-fluoro-3-(trifluoromethyl)phenoxy]-2-methyl-5-oxo-thiazolo[3,2-a]pyrimidine-3-carboxamide] |
| 8.76 | Cc1sc2nc(Cn3nc(C(F)(F)F)cc3C)cc(=O)n2c1C(=O)NCC(F)(F)F [compound 52, 2-methyl-7-[[5-methyl-3-(trifluoromethyl)pyrazol-1-yl]methyl]-5-oxo-N-(2,2,2-trifluoroethyl)thiazolo[3,2-a]pyrimidine-3-carboxamide] |
| 0.635 | CNC(=O)c1c(C(F)(F)F)sc2nc(Cn3nc(C(F)(F)F)cc3C3CC3)cc(=O)n12 [compound 53, 7-[[5-cyclopropyl-3-(trifluoromethyl)pyrazol-1-yl]methyl]-N-methyl-5-oxo-2-(trifluoromethyl)thiazolo[3,2-a]pyrimidine-3-carboxamide] |
| 2.2 | CNC(=O)c1c(C(F)(F)F)sc2nc(Cn3nc(C4CC4)cc3C(F)(F)F)cc(=O)n12 [compound 54, 7-[[3-cyclopropyl-5-(trifluoromethyl)pyrazol-1-yl]methyl]-N-methyl-5-oxo-2-(trifluoromethyl)thiazolo[3,2-a]pyrimidine-3-carboxamide] |
| 1.16 | CNC(=O)c1c(C(F)(F)F)sc2nc(Cn3nc(C(F)(F)F)cc3Cl)cc(=O)n12 [compound 55, 7-[[5-chloro-3-(trifluoromethyl)pyrazol-1-yl]methyl]-N-methyl-5-oxo-2-(trifluoromethyl)thiazolo[3,2-a]pyrimidine-3-carboxamide] |
| 2.27 | CNC(=O)c1c(C(F)(F)F)sc2nc(Cn3nc(Cl)cc3C(F)(F)F)cc(=O)n12 [compound 56, 7-[[3-chloro-5-(trifluoromethyl)pyrazol-1-yl]methyl]-N-methyl-5-oxo-2-(trifluoromethyl)thiazolo[3,2-a]pyrimidine-3-carboxamide] |
| 0.627 | Cc1sc2nc(Cn3nc(C(F)(F)F)cc3C3CC3)cc(=O)n2c1C(=O)NCC(F)(F)F [compound 57, 7-[[5-cyclopropyl-3-(trifluoromethyl)pyrazol-1-yl]methyl]-2-methyl-5-oxo-N-(2,2,2-trifluoroethyl)thiazolo[3,2-a]pyrimidine-3-carboxamide] |
| 6.53 | Cc1sc2nc(Cn3nc(C4CC4)cc3C(F)(F)F)cc(=O)n2c1C(=O)NCC(F)(F)F [compound 58, 7-[[3-cyclopropyl-5-(trifluoromethyl)pyrazol-1-yl]methyl]-2-methyl-5-oxo-N-(2,2,2-trifluoroethyl)thiazolo[3,2-a]pyrimidine-3-carboxamide] |
| 3.22 | CCNC(=O)c1c(Cl)sc2nc(Cc3cccc(C(F)(F)F)c3F)cc(=O)n12 [compound 60, 2-chloro-N-ethyl-7-[[2-fluoro-3-(trifluoromethyl)phenyl]methyl]-5-oxo-thiazolo[3,2-a]pyrimidine-3-carboxamide] |
| 8.06 | CNC(=O)c1c(C(F)(F)F)sc2nc(Cn3nc(C(F)(F)F)cc3C)cc(=O)n12 [compound 61, N-methyl-7-[[5-methyl-3-(trifluoromethyl)pyrazol-1-yl]methyl]-5-oxo-2-(trifluoromethyl)thiazolo[3,2-a]pyrimidine-3-carboxamide] |
| 24.6 | CNC(=O)c1c(C(F)(F)F)sc2nc(Cn3nc(C)cc3C(F)(F)F)cc(=O)n12 [compound 62, N-methyl-7-[[3-methyl-5-(trifluoromethyl)pyrazol-1-yl]methyl]-5-oxo-2-(trifluoromethyl)thiazolo[3,2-a]pyrimidine-3-carboxamide] |
| 0.551 | Cc1sc2nc(Cn3nc(C(F)(F)F)cc3Cl)cc(=O)n2c1C(=O)NCC(F)(F)F [compound 65, 7-[[5-chloro-3-(trifluoromethyl)pyrazol-1-yl]methyl]-2-methyl-5-oxo-N-(2,2,2-trifluoroethyl)thiazolo[3,2-a]pyrimidine-3-carboxamide] |
| 1.69 | Cc1sc2nc(Cn3nc(Cl)cc3C(F)(F)F)cc(=O)n2c1C(=O)NCC(F)(F)F [compound 66, 7-[[3-chloro-5-(trifluoromethyl)pyrazol-1-yl]methyl]-2-methyl-5-oxo-N-(2,2,2-trifluoroethyl)thiazolo[3,2-a]pyrimidine-3-carboxamide] |
| 36.6 | Cc1cc(C(F)(F)F)n(Cc2cc(=O)n3c(C(=O)NCC(F)(F)F)c(C)sc3n2)n1 [compound 67, 2-methyl-7-[[3-methyl-5-(trifluoromethyl)pyrazol-1-yl]methyl]-5-oxo-N-(2,2,2-trifluoroethyl)thiazolo[3,2-a]pyrimidine-3-carboxamide] |
| 62.6 | CNC(=O)c1c(C)sc2nc(Cn3cc(C(F)(F)F)cn3)cc(=O)n12 [compound 72, N,2-dimethyl-5-oxo-7-[[4-(trifluoromethyl)pyrazol-1-yl]methyl]thiazolo[3,2-a]pyrimidine-3-carboxamide] |
| 0.436 | CCNC(=O)c1c(C)sc2nc(Cn3nc(C(F)(F)F)cc3C3CC3)cc(=O)n12 [compound 76, 7-[[5-cyclopropyl-3-(trifluoromethyl)pyrazol-1-yl]methyl]-N-ethyl-2-methyl-5-oxo-thiazolo[3,2-a]pyrimidine-3-carboxamide] |
